Experimental data taken from US11708351B2 (Achillion Pharmaceuticals, Inc., priority 2017, dated 2023).
Where two headings read alike, the source gives them in different places.

Target: Human Factor D (Homo sapiens (Human), UniProt P00746)
Assay: Human Factor D Assay
Format: biochemical
Procedure: Human Factor D (purified from human serum, Complement Technology, Inc.) at 80 nM final concentration is incubated with test compound at various concentrations for 5 min at room temperature in 50 mM Tris, 1M NaCl, pH 7.5. A synthetic substrate Z-L-Lys-SBzl and DTNB (Ellman's reagent) are added to final concentrations of 100 μM each. Absorbance at 405 nm (A405) is recorded at 30 second intervals for 30 min using a microplate spectrophotometer. IC50 values are calculated by nonlinear regression of complement Factor D reaction rates as a function of test compound concentration.

[1] = Factor D inhibition, assay of Example 10, read-out: IC50 (Stars)
[2] = Table 6, Factor D 80 nM, substrate Z-L-Lys-SBzl, read-out: IC50
[3] = Table 8, Factor D 80 nM, substrate Z-L-Lys-SBzl, read-out: IC50

Chain of Human Factor D (P00746 26-253): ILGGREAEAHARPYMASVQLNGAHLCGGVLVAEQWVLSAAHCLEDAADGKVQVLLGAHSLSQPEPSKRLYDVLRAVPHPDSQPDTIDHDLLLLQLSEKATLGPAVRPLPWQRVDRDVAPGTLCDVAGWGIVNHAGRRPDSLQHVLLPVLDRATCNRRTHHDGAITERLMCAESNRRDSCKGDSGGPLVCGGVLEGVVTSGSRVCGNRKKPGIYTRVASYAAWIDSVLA

Compound	IC50 [1]	IC50 [2]	further results
CC(=O)c1nn(CC(=O)N2[C@H](C(=O)Nc3nc(Br)c(F)cc3C)C[C@@]3(CN(CCO)CCO)C[C@@H]23)c2cnc(-c3cnc(C)nc3)cc12 [Compound 248, (1R,3S,5R)-2-(2-(3-acetyl-5-(2-methylpyrimidin-5-yl)-1H-pyrazolo[3,4-c]pyridin-1-yl)acetyl)-5-((bis(2-hydroxy-ethyl)amino)methyl)-N-(6-bromo-5-fluoro-3-methylpyridin-2-yl)-2-azabicyclo[3.1.0]hexane-3-carboxamide]	< 1000 nM	–	–
COCc1ncc(-c2ccc3c(c2)c(C(C)=O)nn3CC(=O)N2[C@H](C(=O)Nc3nc(Br)ccc3C)C[C@@]3(C)C[C@@H]23)cn1 [Compound 278, (1R,3S,5R)-2-(2-(3-acetyl-5-(2-(methoxymethyl)py-rimidin-5-yl)-1H-indazol-1-yl)acetyl)-N-(6-bromo-3-methylpyridin-2-yl)-5-methyl-2-azabicyclo[3.1.0]hexane-3-carboxamide]	< 1000 nM	–	–
CC(=O)c1nn(CC(=O)N2[C@H](C(=O)Nc3nc(Br)c(F)cc3C)C[C@@]3(CC#N)C[C@@H]23)c2cnc(-c3cnc(C)nc3)cc12 [Compound 249, (1R,3S,5R)-2-(2-(3-acetyl-5-(2-methylpyrimidin-5-yl)-1H-pyrazolo[3,4-c]pyridin-1-yl)acetyl)-N-(6-bromo-5-fluoro-3-methylpyridin-2-yl)-5-(cyanomethyl)-2-azabicyclo[3.1.0]hexane-3-carboxamide]	< 1000 nM	–	–
CC(=O)c1nn(CC(=O)N2[C@H](C(=O)Nc3nc(Br)ccc3C)C[C@@]3(C)C[C@@H]23)c2cnc(-c3cnc(C)cn3)cc12 [Compound 303]	< 1000 nM	–	–
CC(=O)c1c2cc(-c3cnc(C)nc3)cc(C(F)(F)F)c2nn1CC(=O)N1[C@H](C(=O)Nc2nc(Br)ccc2C)C[C@@]2(C)C[C@@H]12 [Compound 217, (1R,3S,5R)-2-(2-(3-acetyl-5-(2-methylpyrimidin-5-yl)-7-(trifluoromethyl)-2H-indazol-2-yl)acetyl)-N-(6-bromo-3-methylpyridin-2-yl)-5-methyl-2-azabicyclo[3.1.0] hexane-3-carboxamide]	–	> 10000 nM	–
CC(=O)c1nn(CC(=O)N2[C@H](C(=O)Nc3nc(Br)ccc3C)C[C@@]3(C)C[C@@H]23)c2c(CN(C)C)cc(-c3cnc(C)nc3)cc12 [Compound 167, (1R,3S,5R)-2-(2-(3-Acetyl-7-((dimethylamino)methyl)-5-(2-methylpyrimidin-5-yl)-1H-indazol-1-yl)acetyl)-N-(6-bromo-3-methylpyridin-2-yl)-5-methyl-2-azabicyclo[3.1.0]hexane-3-carboxamide]	–	< 1000 nM	–
CC(=O)c1nn(CC(=O)N(C(=O)[C@@H]2C[C@@]3(C)C[C@H]3N2)c2cccc(Br)n2)c2cnc(-c3cnc(C)nc3)cc12 [Compound 334, (1R,3S,5R)-2-(2-(3-acetyl-5-(2-methylpyrimidin-5-yl)-1H-pyrazolo[3,4-c]pyridin-1-yl)acetyl)-N-(6-bromopyridin-2-yl)-5-methyl-2-azabicyclo[3.1.0]hexane-3-carboxamide]	< 1000 nM	–	–
CC(=O)c1nn(CC(=O)N2[C@H](C(=O)Nc3cc(-c4ccccc4O)cc(Br)n3)C[C@@]3(C)C[C@@H]23)c2ccc(-c3cnc(C)nc3)cc12 [Compound 556, (1R,3S,5R)-2-(2-(3-acetyl-5-(2-methylpyrimidin-5-yl)-1H-indazol-1-yl)acetyl)-N-(6-bromo-4-(2-hydroxyphenyl)pyridin-2-yl)-5-methyl-2-azabicyclo[3.1.0]hexane-3-carboxamide]	–	–	IC50 (Table 7, Factor D inhibition, assay of Example 10, read-out: IC50 (Stars)): < 1000 nM
CC(=O)c1nn(CC(=O)N2[C@H](C(=O)O)C[C@@]3(C)C[C@@H]23)c2c(C)cc(-c3cnc(C)nc3)cc12 [Compound 126, (1R,3S,5R)-2-(2-(3-acetyl-7-methyl-5-(2-methylpyrimidin-5-yl)-1H-indazol-1-yl)acetyl)-5-methyl-2-azabicyclo[3.1.0] hexane-3-carboxylic acid]	–	> 10000 nM	–
CC(=O)c1nn(CC(=O)N2[C@H](C(=O)Nc3nc(Br)ccc3COCCF)C[C@@]3(C)C[C@@H]23)c2ccc(-c3cnc(C)nc3)cc12 [Compound 301, (1R,3S,5R)-2-(2-(3-acetyl-5-(2-methylpyrimidin-5-yl)-1H-indazol-1-yl)acetyl)-N-(6-bromo-3-((2-fluoro-ethoxy)methyl)pyridin-2-yl)-5-methyl-2-azabicyclo[3.1.0]hexane-3-carboxamide]	< 1000 nM	–	–
CC(=O)c1nn(CC(=O)N2[C@H](C(=O)Nc3nc(Br)ccc3C)C[C@@]3(CNC(=O)COCCOCCNC(=O)COCCOCCNC(=O)CC[C@H](NC(=O)CCCCCCCCCCCCCCCCC(=O)O)C(=O)O)C[C@@H]23)c2ccc(-c3cnc(C)nc3)cc12 [Compound 379, (S)-1-((1R,3S,5R)-2-(2-(3-acetyl-5-(2-methylpyrimidin-5-yl)-1H-indazol-1-yl)acetyl)-3-((6-bromo-3-methylpyridin-2-yl)carbamoyl)-2-azabicyclo[3.1.0]hexan-5-yl)-24-carboxy-3,12,21,26-tetraoxo-5,8,14,17-tetraoxa-2,11,20,25-tetraazatritetracontan-43-oic acid]	–	–	IC50 [3]: < 1000 nM
COC(=O)CCCCCCCCCCCCCCCCC(=O)N[C@@H](CCC(=O)NCCOCCOCC(=O)NCCOCCOCC(=O)NCc1ncc(-c2cc(C)c3c(c2)c(C(C)=O)nn3CC(=O)N2[C@H](C(=O)Nc3nc(Br)ccc3C)C[C@@]3(C)C[C@@H]23)cn1)C(=O)OC [Compound 403, (S)-methyl 1-(5-(3-acetyl-1-(2-((1R,3S,5R)-3-((6-bromo-3-methylpyridin-2-yl)carbamoyl)-5-methyl-2-azabicyclo[3.1.0]hexan-2-yl)-2-oxoethyl)-7-methyl-1H-indazol-5-yl)pyrimidin-2-yl)-24-(methoxycarbonyl)-3,12,21,26-tetraoxo-5,8,14,17-tetraoxa-2,11,20,25-tetraazatritetracontan-43-oate]	–	–	IC50 [3]: < 1000 nM
(3S)-5-(3-Azabicyclo[3.1.1]heptan-3-ylmethyl)-2-(2-(3-acetyl-5-(2-methylpyrimidin-5-yl)-1H-indazol-1-yl)acetyl)-N-(6-bromo-3-methylpyridin-2-yl)-2-azabicyclo[3.1.0]hexane-3-carboxamide [Compound 13]	–	< 1000 nM	–
CC(=O)c1nn(CC(=O)N2C[C@H]3C[C@H]3[C@H]2C(=O)N2C[C@H]3C[C@H]3[C@H]2C(=O)Nc2nc(Br)ccc2C)c2c(C)cc(-c3cnc(C)nc3)cc12 [Compound 92, (1R,2S,5S)-3-((1R,2S,5S)-3-(2-(3-acetyl-7-methyl-5-(2-methylpyrimidin-5-yl)-1H-indazol-1-yl)acetyl)-3-azabicyclo[3.1.0]hexane-2-carbonyl)-N-(6-bromo-3-methylpyridin-2-yl)-3-azabicyclo[3.1.0] hexane-2-carboxamide]	–	1000 to 10000 nM	–
